From patent US11555012B2 (Nimbus Artemis, Inc., priority 2018, dated 2023) come the findings set out here.

The target of test [1] is T1, ACL (Homo sapiens (Human), UniProt P53396). In words: ADP-Glo Assay. In general terms: In ADP-Glo the light output rises with the ADP produced.
Target sequence in this assay (P53396 other isoform, or with tags, fused parts or gaps isoform P53396-2): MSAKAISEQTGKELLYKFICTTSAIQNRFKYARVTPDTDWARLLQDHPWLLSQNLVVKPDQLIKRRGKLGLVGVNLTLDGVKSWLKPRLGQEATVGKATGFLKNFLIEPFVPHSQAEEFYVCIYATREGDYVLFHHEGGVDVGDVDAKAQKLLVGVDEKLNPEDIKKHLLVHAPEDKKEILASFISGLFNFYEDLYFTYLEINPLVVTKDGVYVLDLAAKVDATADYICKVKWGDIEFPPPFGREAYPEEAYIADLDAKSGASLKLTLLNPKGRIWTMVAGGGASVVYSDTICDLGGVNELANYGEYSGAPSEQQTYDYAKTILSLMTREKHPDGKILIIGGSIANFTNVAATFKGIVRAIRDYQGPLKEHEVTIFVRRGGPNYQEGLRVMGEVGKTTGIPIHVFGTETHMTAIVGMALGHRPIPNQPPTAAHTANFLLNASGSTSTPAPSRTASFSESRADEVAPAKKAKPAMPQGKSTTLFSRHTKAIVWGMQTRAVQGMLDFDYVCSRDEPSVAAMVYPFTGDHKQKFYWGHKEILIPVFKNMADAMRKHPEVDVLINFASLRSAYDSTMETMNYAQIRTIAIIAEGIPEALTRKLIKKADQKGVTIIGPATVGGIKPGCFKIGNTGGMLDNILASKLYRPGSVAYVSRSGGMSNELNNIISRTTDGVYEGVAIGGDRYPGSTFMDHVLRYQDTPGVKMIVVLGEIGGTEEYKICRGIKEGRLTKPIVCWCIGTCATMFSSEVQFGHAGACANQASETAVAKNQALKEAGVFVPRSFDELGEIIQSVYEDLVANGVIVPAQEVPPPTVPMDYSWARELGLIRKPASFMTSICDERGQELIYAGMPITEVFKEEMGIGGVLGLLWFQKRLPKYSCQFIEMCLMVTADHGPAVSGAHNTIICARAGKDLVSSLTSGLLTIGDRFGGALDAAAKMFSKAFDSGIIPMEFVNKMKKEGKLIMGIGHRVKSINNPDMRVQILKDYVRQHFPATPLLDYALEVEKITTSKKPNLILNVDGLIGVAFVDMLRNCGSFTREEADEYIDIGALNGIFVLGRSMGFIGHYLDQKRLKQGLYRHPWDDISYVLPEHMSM
The target in test [2] is T1, ACL. Put plainly: ACLY-MDH Coupled Assay.
Target sequence in this assay (P53396 whole entry, species assumed): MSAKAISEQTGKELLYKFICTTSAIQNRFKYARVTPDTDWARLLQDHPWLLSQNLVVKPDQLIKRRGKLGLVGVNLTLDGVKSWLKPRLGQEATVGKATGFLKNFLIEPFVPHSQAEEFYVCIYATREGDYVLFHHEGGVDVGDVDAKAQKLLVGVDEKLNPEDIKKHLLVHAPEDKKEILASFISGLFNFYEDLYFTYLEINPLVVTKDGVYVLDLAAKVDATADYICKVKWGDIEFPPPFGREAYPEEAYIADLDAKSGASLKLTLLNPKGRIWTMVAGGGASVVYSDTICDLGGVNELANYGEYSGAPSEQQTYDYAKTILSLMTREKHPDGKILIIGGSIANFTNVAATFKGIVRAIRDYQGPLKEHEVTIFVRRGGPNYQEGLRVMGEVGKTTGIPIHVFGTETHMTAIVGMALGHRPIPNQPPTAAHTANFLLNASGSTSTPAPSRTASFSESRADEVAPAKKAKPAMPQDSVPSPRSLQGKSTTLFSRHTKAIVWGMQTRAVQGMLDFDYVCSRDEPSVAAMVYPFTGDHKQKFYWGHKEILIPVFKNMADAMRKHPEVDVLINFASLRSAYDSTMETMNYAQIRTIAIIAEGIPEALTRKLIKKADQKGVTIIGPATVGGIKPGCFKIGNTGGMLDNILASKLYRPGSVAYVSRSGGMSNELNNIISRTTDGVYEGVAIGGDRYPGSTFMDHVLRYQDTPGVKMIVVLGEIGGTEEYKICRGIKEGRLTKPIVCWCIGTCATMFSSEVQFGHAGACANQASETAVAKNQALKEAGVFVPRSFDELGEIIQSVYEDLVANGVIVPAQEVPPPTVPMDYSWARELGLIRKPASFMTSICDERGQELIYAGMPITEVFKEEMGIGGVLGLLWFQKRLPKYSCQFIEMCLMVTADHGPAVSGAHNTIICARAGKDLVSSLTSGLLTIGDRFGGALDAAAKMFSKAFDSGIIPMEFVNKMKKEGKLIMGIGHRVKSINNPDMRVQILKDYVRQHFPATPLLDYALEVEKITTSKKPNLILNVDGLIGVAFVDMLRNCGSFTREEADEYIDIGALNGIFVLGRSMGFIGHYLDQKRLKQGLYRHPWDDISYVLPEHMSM
Description: Compounds of the present invention were evaluated in an ACLY Coupled Assay.
The assay protocol for the Coupled Assay (below) was followed:
b) Add 1 μL cpds to 96 assay plate, Test cpd conc: 100/30/10 μM top dose, 3 folds dilution, 10+0+control (control: buffer without ACL+DMSO) points, 1000 rpm for 1 min, incubation at 25° C. for 60 min
The mark [3] stands for this setting: read-out: ACL-ADP-Glo (IC50), 3 nM ACL, 15 μM ATP, 3 μM CoA, 300 μM Citrate.

As usually defined, the IC50 is the point on the concentration scale where inhibition reaches its midpoint. Regarding `COc1ccc(-c2ccccc2)cc1NS(=O)(=O)c1cc(C(=O)O)cc(Cl)c1O` [I-2, 3-chloro-4-hydroxy-5-(N-(4-methoxy-[1,1′-biphenyl]-3-yl)sulfamoyl)benzoic Acid], the 50% inhibitory concentration (IC50) in test [1] lay in the range of 0.5 to 20 µM; in test [2] it was 0.5 to 30 µM.
The matching figures for `COc1ccc(-c2cccnc2)cc1NS(=O)(=O)c1cc(Cl)cc(Cl)c1O` [I-7, 3,5-dichloro-2-hydroxy-N-(2-methoxy-5-(pyridin-3-yl)phenyl)benzenesulfonamide]: 0.5 to 20 µM and 0.5 to 30 µM.
Consider `COc1cc(Br)ccc1NS(=O)(=O)c1cc(Cl)cc(Cl)c1O` [I-11, N-(4-bromo-2-methoxyphenyl)-3,5-dichloro-2-hydroxybenzenesulfonamide], for which the IC50 was 0.5 to 20 µM in test [1] and 0.5 to 30 µM in test [2].
The corresponding values for `O=C(O)c1ccc(F)c(NS(=O)(=O)c2cc(Cl)cc(Cl)c2O)c1` [I-12, 3-((3,5-dichloro-2-hydroxyphenyl)sulfonamido)-4-fluorobenzoic Acid] are 0.5 to 20 µM and 0.5 to 30 µM.
The matching figures for `COc1ccc(-c2ccccc2)cc1NS(=O)(=O)c1cccc(-c2nn[nH]n2)c1` [I-19, N-(4-methoxy-[1,1′-biphenyl]-3-yl)-3-(2H-tetrazol-5-yl)benzenesulfonamide]: 0.5 to 20 µM and 0.5 to 30 µM.
The matching figures for `O=S(=O)(Nc1cc(-c2nn[nH]n2)ccc1F)c1cc(Cl)cc(Cl)c1O` [I-24, 3,5-dichloro-N-[2-fluoro-5-(2H-1,2,3,4-tetrazol-5-yl)phenyl]-2-hydroxybenzene-1-sulfonamide]: 0.5 to 20 µM and 0.5 to 30 µM.
For the compound `O=S(=O)(Nc1cc(-c2ccccc2)ccc1O)c1cc(Cl)cc(Cl)c1O` [I-28, 3,5-dichloro-2-hydroxy-N-(2-hydroxy-5-phenylphenyl) benzene-1-sulfonamide], the values for the IC50 in test [1] and in test [2] were 0.5 to 20 µM and 0.05 to 0.5 µM, respectively.
The matching figures for `N#Cc1cc(Cl)cc(S(=O)(=O)Nc2cc(-c3ccccc3)ccc2F)c1O` [I-29, 5-chloro-3-cyano-N-(2-fluoro-5-phenylphenyl)-2-hydroxybenzene-1-sulfonamide]: 0.5 to 20 µM and 0.5 to 30 µM.
The corresponding values for `O=S(=O)(Nc1cc(-c2ccccc2)ccn1)c1cc(Cl)cc(Br)c1O` [I-32] are 0.5 to 20 µM and 0.5 to 30 µM.
The corresponding values for `O=C(O)COc1c(Br)cc(Cl)cc1S(=O)(=O)Nc1cc(-c2ccccc2)ccc1F` [I-46, 2-(2-bromo-4-chloro-6-(N-(4-fluoro-[1,1′-biphenyl]-3-yl)sulfamoyl)phenoxy)acetic Acid] are 0.5 to 20 µM and 0.5 to 30 µM.
As to `COC(=O)c1cc(Cl)c(OC)c(S(=O)(=O)Nc2cc(-c3ccccc3)ccc2F)c1` [I-49, Methyl 3-chloro-5-(N-(4-fluoro-[1,1′-biphenyl]-3-yl)sulfamoyl)-4-methoxybenzoate], the IC50 in test [1] lay within 0.5 to 20 µM; in test [2], 0.5 to 30 µM.
The matching figures for `CCC(=O)Oc1c(Cl)cc(Cl)cc1S(=O)(=O)Nc1cc(-c2ccccc2)ccc1F` [I-50, 2,4-dichloro-6-(N-(4-fluoro-[1,1′-biphenyl]-3-yl)sulfamoyl)phenyl propionate]: 0.5 to 20 µM and 0.5 to 30 µM.
The corresponding values for `Nc1ccc(-c2ccccc2)cc1NS(=O)(=O)c1cc(Cl)cc(Br)c1O` [I-53, N-(2-amino-5-phenylphenyl)-3-bromo-5-chloro-2-hydroxybenzene-1-sulfonamide] are 0.5 to 20 µM and 0.5 to 30 µM.
The corresponding values for `COc1ccc(-c2ccccc2)cc1NS(=O)(=O)c1cc(C(N)=O)cc(Cl)c1O` [I-55, 3-chloro-4-hydroxy-5-[(2-methoxy-5-phenylphenyl)sulfamoyl]benzamide] are 0.05 to 0.5 µM and 0.5 to 30 µM.
For the compound `COc1ccc(-c2ccccc2)cc1NS(=O)(=O)c1cc(C(=O)N(C)C)cc(Cl)c1O` [I-56, 3-chloro-4-hydroxy-5-[(2-methoxy-5-phenylphenyl)sulfamoyl]-N,N-dimethylbenzamide], the IC50 in test [1] and in test [2] was 0.05 to 0.5 µM throughout.
With `COc1ccc(-c2ccccc2)cc1NS(=O)(=O)c1cc(C#N)cc(Cl)c1O` [I-58, 3-chloro-5-cyano-2-hydroxy-N-(2-methoxy-5-phenylphenyl)benzene-1-sulfonamide], the IC50 in test [1] and in test [2] was 0.05 to 0.5 µM in each case.
As to `COc1c(Cl)cc(C(=O)O)cc1S(=O)(=O)Nc1cc(-c2ccccc2)c(F)cc1F` [I-62, 3-chloro-5-[(2,4-difluoro-5-phenylphenyl)sulfamoyl]-4-methoxybenzoic Acid], the IC50 in test [1] was 0.5 to 20 µM; in test [2] it was 0.5 to 30 µM.
Consider `COc1ccc(-c2ccccc2)cc1NS(=O)(=O)c1cc(C(=O)NCCN)cc(Cl)c1O` [I-64, N-(2-aminoethyl)-3-chloro-4-hydroxy-5-[(2-methoxy-5-phenylphenyl)sulfamoyl]benzamide], for which the values for the IC50 in test [1] and in test [2] were 0.5 to 20 µM and 0.5 to 30 µM, respectively.
The matching figures for `CNC(=O)c1cc(Cl)c(O)c(S(=O)(=O)Nc2cc(-c3ccccc3)ccc2OC)c1` [I-66, 3-chloro-4-hydroxy-5-[(2-methoxy-5-phenylphenyl)sulfamoyl]-N-methylbenzamide]: 0.05 to 0.5 µM and 0.5 to 30 µM.
On to `O=S(=O)(c1cc(Cl)cc(Cl)c1O)N(Cc1ccccc1)Cc1cccc(-c2ccccc2)c1` [I-67, N-([1,1′-biphenyl]-3-ylmethyl)-N-benzyl-3,5-dichloro-2-hydroxybenzenesulfonamide], for which the IC50 in test [1] lay in the range of 0.5 to 20 µM; in test [2] it was 0.5 to 30 µM.
The matching figures for `COC(=O)c1cc(Cl)c(O)c(S(=O)(=O)Nc2ccc(F)cc2F)c1` [I-74, Methyl 3-chloro-5-(N-(2,4-difluorophenyl)sulfamoyl)-4-hydroxybenzoate]: 0.05 to 0.5 µM and 0.5 to 30 µM.
The corresponding values for `CNC(=O)c1cc(Cl)c(O)c(S(=O)(=O)Nc2cc(-c3ccccc3)c(F)cc2F)c1` [I-92, 3-chloro-5-[(2,4-difluoro-5-phenylphenyl)sulfamoyl]-4-hydroxy-N-methylbenzamide] are 0.05 to 0.5 µM and 0.05 to 0.5 µM.
As to `CC(C)NC(=O)c1cc(Cl)c(O)c(S(=O)(=O)Nc2cc(-c3ccccc3)c(F)cc2F)c1` [I-93], the IC50 in test [1] (setting [3]) was less than 0.05 µM; in test [2], 0.05 to 0.5 µM.
On to `COC(=O)Cc1cc(Cl)c(O)c(S(=O)(=O)Nc2cc(-c3ccccc3)ccc2OC)c1` [I-94, Methyl 2-[3-chloro-4-hydroxy-5-[(2-methoxy-5-phenylphenyl)sulfamoyl]phenyl]acetate], for which the IC50 lay in the range of 0.5 to 20 µM in test [1] and 0.5 to 30 µM in test [2].
For `CN(C)C(=O)c1cc(Cl)c(O)c(S(=O)(=O)Nc2cc(-c3ccccc3)ccc2C(=O)O)c1` [I-518, 3-((3-chloro-5-(dimethylcarbamoyl)-2-hydroxyphenyl)sulfonamido)-[1,1′-biphenyl]-4-carboxylic Acid], the IC50 in test [1] (setting [3]) lay in the range of 0.5 to 20 µM.
`O=C(Nc1cc(Br)ccc1C(=O)O)c1cc(Cl)cc(Cl)c1` [I-519, 4-bromo-2-(3,5-dichlorobenzamido)benzoic Acid]: the IC50 in test [1] lay within 0.5 to 20 µM.
`O=C(O)c1ccccc1NS(=O)(=O)c1cc(Cl)cc(Cl)c1` [I-522, 2-((3,5-dichlorophenyl)sulfonamido)benzoic acid] returned an IC50 in test [1] of more than 20 µM.
`CCS(=O)(=O)Nc1ccc(S(=O)(=O)Nc2cc(-c3ccccc3)ccc2F)c(OC)c1` [I-523, 4-(ethylsulfonamido)-N-(4-fluoro-[1,1′-biphenyl]-3-yl)-2-methoxybenzenesulfonamide] yielded an IC50 in test [1] of more than 20 µM.
On the same count and under the same terms, the value for `CC(C)S(=O)(=O)Nc1ccc(S(=O)(=O)Nc2cc(-c3ccccc3)ccc2F)cc1F` [I-524, 3-fluoro-N-(4-fluoro-[1,1′-biphenyl]-3-yl)-4-((1-methylethyl)sulfonamido)benzenesulfonamide] was more than 20 µM; that for `COC(=O)c1ccnc(NS(=O)(=O)c2cc(Cl)cc(Cl)c2O)c1` [I-525, methyl 2-((3,5-dichloro-2-hydroxyphenyl)sulfonamido)isonicotinate] was more than 20 µM; that for `Cc1ccc(S(=O)(=O)Nc2cc(-c3ccccc3)ccc2F)c(C)c1OCC(=O)O` [I-526, 2-(3-(N-(4-fluoro-[1,1′-biphenyl]-3-yl)sulfamoyl)-2,6-dimethylphenoxy)acetic acid] was more than 20 µM.
In test [1], `Cc1ccc(C(=O)O)c(NS(=O)(=O)c2cc(Cl)cc(Cl)c2)n1` [I-527, 2-((3,5-dichlorophenyl)sulfonamido)-6-methylnicotinic acid] registered an IC50 of more than 20 µM.
For `COc1ccc(-c2ccccc2)cc1NS(=O)(=O)c1ccccc1O` [I-528, 2-hydroxy-N-(4-methoxy-[1,1′-biphenyl]-3-yl)benzenesulfonamide], the IC50 in test [1] was more than 20 µM.
On the same count and under the same terms, the result for `COc1ccc(C(=O)O)cc1S(=O)(=O)Nc1cc(-c2ccccc2)c(F)cc1F` [I-529, 3-(N-(4,6-difluoro-[1,1′-biphenyl]-3-yl)sulfamoyl)-4-methoxybenzoic acid] reads more than 20 µM.
Same read-out and setting: the result for `COC(=O)Cc1ccc(-c2ccccc2)cc1NS(=O)(=O)c1cc(Cl)cc(Cl)c1` [I-530, methyl 2-(3-((3,5-dichlorophenyl)sulfonamido)-[1,1′-biphenyl]-4-yl)acetate] reads more than 20 µM; that for `O=C(O)c1cc(NC(=O)c2cccc3ncccc23)ccc1Cl` [I-531, 2-chloro-5-(quinoline-5-carboxamido)benzoic acid], more than 20 µM; that for `Cc1cccc(C(=O)O)c1NS(=O)(=O)c1cc(Cl)cc(Cl)c1` [I-533, 2-((3,5-dichlorophenyl)sulfonamido)-3-methylbenzoic acid], more than 20 µM.
Still for that read-out and setting: the result for `O=C(O)c1cc(NC(=O)c2cc(F)cc3nc[nH]c23)ccc1Cl` [I-535, 2-chloro-5-(5-fluoro-1H-benzo[d]imidazole-7-carboxamido)benzoic acid] reads more than 20 µM; that for `O=C(O)c1cc(Cl)c(O)c(S(=O)(=O)Nc2cc(-c3ccccc3)ccn2)c1` [I-536], more than 20 µM.
